Our source for the outcome values is PubChem BioAssay AID423 (Public Access to Neuroactive & Anticonvulsant Chemical …, 2006).

The assay concerns mouse/rat MES, scMET, 6Hz seizure protection, qualitative. The assay is described as follows: anticonvulsant seizure protection in rodents, summary, in vivo study, qualitative, MES, scMET, 6Hz, i.p. and oral (AID 423).

Activity calls are given as the source filed them.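 Rule for the calls: active = any mouse or rat spared a seizure in electric shock or chemically induced seizure tests, at any tested dose or timing; inactive = no animal spared a seizure in any test.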

Take `O=C1CN=C(c2ccccc2Cl)c2cc([N+](=O)[O-])ccc2N1`: the outcome was active. Turning to `O=C1CC2OCC=C3CN4CCC56c7ccccc7N1C5C2C3CC46` (stereo not given), the outcome was “active; inactive”. Next, `CC(C)[N+](C)(CCOC(=O)C1c2ccccc2Oc2ccccc21)C(C)C`: “active; inactive”. In the case of `CCC1(C)CC(=O)NC1=O` (stereo not given), the outcome was “active; inactive”.

With `COC(=O)Nc1nc2ccc(C(=O)c3ccccc3)cc2[nH]1`, the outcome is “active; inactive”.

For the compound `CCN(CC)CC(=O)Nc1c(C)cccc1C`, the outcome was active. Regarding `CC(=O)OCC[N+](C)(C)C`, the outcome is “active; inactive”. Regarding `CCC1(c2ccccc2)C(=O)NC(=O)NC1=O`, the outcome was active.

Consider `NC(=O)N1c2ccccc2C=Cc2ccccc21`, for which the outcome was active. For `CCCCC1C(=O)N(c2ccccc2)N(c2ccccc2)C1=O`, the outcome is “active; inactive”.
